Data on 24 compounds can be found in patent US20240132431A1, “METHOD FOR ALKYLATING ACIDIC FUNCTIONAL GROUP” (Chugai Seiyaku Kabushiki Kaisha, priority 2021, published 2024).

In this experiment the target is T1, Bcl-2 protein (Recombinant Human Bcl-2 Protein) (Homo sapiens, UniProt P10415).
T1 construct: purchased Novus NBP2-34889
Put plainly: Binding evaluation of mixture library compounds to Bcl-2 using AS-MS (affinity selection mass spectrometry). Particulars: for ASMS ratio (%) n = 1 / ASMS ratio (%) n = 2: ASMS Ratio(%)=(A−C)/B×100; for ASMS ratio (%) n = 1: replicate n = 1; for ASMS ratio (%) n = 2: replicate n = 2. The method, boiled down:
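ASMS Ratio (%) was calculated as (A−C)/B×100, where A is the protein sample after SEC, B the protein-free sample without SEC and C the protein-free sample after SEC. Each compound was at […] in a 1200-member pool with 20 μM Bcl-2, incubated 1 h at 23° C.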

The mark [1] stands for this setting: AS-MS, mixture of 1200 compounds, Bcl-2.
Where [2] appears, read: AS-MS on the mixture of 1200 library compounds.

T1 sequence (P10415 whole entry): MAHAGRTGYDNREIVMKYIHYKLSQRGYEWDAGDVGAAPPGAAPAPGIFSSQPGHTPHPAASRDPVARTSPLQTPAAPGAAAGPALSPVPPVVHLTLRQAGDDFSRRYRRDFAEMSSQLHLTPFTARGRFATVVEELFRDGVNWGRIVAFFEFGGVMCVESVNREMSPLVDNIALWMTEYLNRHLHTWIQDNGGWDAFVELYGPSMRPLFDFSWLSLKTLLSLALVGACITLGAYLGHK

Turning to `CCOc1cncc(C#Cc2cc(C(=O)N3CCN(c4ccc(C(=O)NCC56CC7CC(CC(C7)C5)C6)nn4)CC3)cc(C(F)(F)F)c2)c1` [B1A020-01, N-(1-Adamantylmethyl)-6-[4-[3-[2-(5-ethoxypyridin-3-yl)ethynyl]-5-(trifluoromethyl)benzoyl]piperazin-1-yl]pyridazine-3-carboxamide], under setting [1], the “ASMS ratio (%) n = 1” value is reported as −4.3% and the “ASMS ratio (%) n = 2” value was −10.5%.
Taken in the same sequence, the figures for `CCCNC(=O)c1ccc(N2CCN(Cc3cc(OC(C)C)cc(-c4cccc(OCC)c4)c3)CC2)cc1` [B1M015-01] were −2.4% and −3.0%.
Taken in the same sequence, the figures for `CCOc1cncc(-c2ccc(CN3CCN(c4ccc(C(=O)NCC(F)(F)F)nn4)CC3)c3ccccc23)c1` [B1K092-01, 6-[4-[[4-(5-Ethoxypyridin-3-yl)naphthalen-1-yl]methyl]piperazin-1-yl]-N-(2,2,2-trifluoroethyl)pyridazine-3-carboxamide] were 4.1% and −0.7%.
As to `CCOc1cccc(-c2ccccc2CCC(=O)N2CCN(c3ccc(C(=O)N(C)CC45CC6CC(CC(C6)C4)C5)nn3)CC2)c1` [B3A011-01, N-(1-Adamantylmethyl)-6-[4-[3-[2-(3-ethoxyphenyl)phenyl]propanoyl]piperazin-1-yl]-N-methylpyridazine-3-carboxamide], under setting [2], the “ASMS ratio (%) n = 1” value came out at 4.5% and the “ASMS ratio (%) n = 2” value is 2.0%.
As to `CCOc1cncc(-c2cc(CN3CCN(c4ccc(C(=O)NS(=O)(=O)C(C)(C)C)nn4)CC3)cc(OC(C)C)c2)c1` [B2L084-01, N-tert-Butylsulfonyl-6-[4-[[3-(5-ethoxypyridin-3-yl)-5-propan-2-yloxyphenyl]methyl]piperazin-1-yl]pyridazine-3-carboxamide], the “ASMS ratio (%)” value is, setting by setting: (n = 1) −3.0%; (n = 2) −1.9%.
With `CCOc1cccc(-c2cc(CN3CCN(c4ccc(C(=O)NS(C)(=O)=O)cc4)CC3)cc(OC(C)C)c2)c1` [B2I057-01, 4-[4-[[3-(3-Ethoxyphenyl)-5-propan-2-yloxyphenyl]methyl]piperazin-1-yl]-N-methylsulfonylbenzamide], the “ASMS ratio (%)” value is 0.0% (n = 1) and 0.0% (n = 2).
With `CCOc1cccc(-c2cc(CN3CCN(c4ccc(C(=O)NS(=O)(=O)C(C)(C)C)cc4)CC3)cc(OCC)c2)c1` [B2L055-01, N-tert-Butylsulfonyl-4-[4-[[3-ethoxy-5-(3-ethoxyphenyl)phenyl]methyl]piperazin-1-yl]benzamide], the “ASMS ratio (%)” value reads like this: (n = 1) 0.0%; (n = 2) 0.0%.
Turning to `CCOc1cncc(-c2ccc(C(C)N3CCN(c4ccc(C(=O)NS(=O)(=O)C(C)(C)C)cc4)CC3)c(F)c2)c1` (stereo not drawn) [B2L100-01, N-tert-Butylsulfonyl-4-[4-[1-[4-(5-ethoxypyridin-3-yl)-2-fluorophenyl]ethyl]piperazin-1-yl]benzamide], the “ASMS ratio (%)” value reads like this: (n = 1) 0.0%; (n = 2) 0.0%.
Regarding `CCOc1cncc(-c2ccc(CN3CCN(c4ccc(C(=O)NS(C)(=O)=O)nn4)CC3)c(CC)c2)c1` [B2I076-01, 6-[4-[[4-(5-Ethoxypyridin-3-yl)-2-ethylphenyl]methyl]piperazin-1-yl]-N-methylsulfonylpyridazine-3-carboxamide], the “ASMS ratio (%)” value reads like this: (n = 1) 0.2%; (n = 2) −3.2%.
Turning to `CCOc1cncc(C#Cc2cncc(C(=O)N3CCN(c4ccc(C(=O)NS(=O)(=O)CCC(F)(F)F)cc4)CC3)c2)c1` [B2N032-01, 4-[4-[5-[2-(5-Ethoxypyridin-3-yl)ethynyl]pyridine-3-carbonyl]piperazin-1-yl]-N-(3,3,3-trifluoropropylsulfonyl)benzamide], the “ASMS ratio (%)” value was −0.4% (n = 1) and −1.0% (n = 2).
Consider `CCOc1cccc(C#Cc2cc(C(=O)N3CCN(c4ccc(C(=O)NS(=O)(=O)c5ccc(NCCSc6ccccc6)c(C(F)(F)F)c5)cc4)CC3)cc(C(F)(F)F)c2)c1` [B2R041-01, 4-[4-[3-[2-(3-Ethoxyphenyl)ethynyl]-5-(trifluoromethyl)benzoyl]piperazin-1-yl]-N-[4-(2-phenylsulfanylethylamino)-3-(trifluoromethyl)phenyl]sulfonylbenzamide], for which the “ASMS ratio (%)” value (n = 1) was determined as 18.0% and the “ASMS ratio (%)” value (n = 2) worked out at 0.0%.
For the compound “4-[4-[4-(5-Ethoxypyridin-3-yl)-3-fluorobenzoyl]piperazin-1-yl]-N-propylbenzamide [B1M091-01]”, under setting [2], the “ASMS ratio (%) n = 1” value turned out to be 0.0% and the “ASMS ratio (%) n = 2” value is given as 0.0%.
As for `CCOc1cccc(-c2ccc(CN3CCN(c4ccc(C(=O)NS(=O)(=O)c5ccc(NCCSc6ccccc6)c([N+](=O)[O-])c5)cc4)CC3)c3ccccc23)c1` [B2Q065-01], under “AS-MS, mixture library, Bcl-2”, the “ASMS ratio (%) n = 1” value worked out at 30.6% and the “ASMS ratio (%) n = 2” value is recorded as −1.6%.
For `CCOc1cccc(-c2cc(C(=O)N3CCN(c4ccc(C(=O)NS(=O)(=O)c5ccc(NCCSc6ccccc6)c([N+](=O)[O-])c5)nn4)CC3)cc(C(F)(F)F)c2)c1` [B2Q017-01, 6-[4-[3-(3-Ethoxyphenyl)-5-(trifluoromethyl)benzoyl]piperazin-1-yl]-N-[3-nitro-4-(2-phenylsulfanylethylamino)phenyl]sulfonylpyridazine-3-carboxamide], in that order: 12.8% and 0.2%.
Take `CCOc1cncc(-c2cc(C(=O)N3CCN(c4ccc(C(=O)NS(C)(=O)=O)nn4)CC3)cc(C(C)(C)C)c2)c1` [B2I016-01, 6-[4-[3-tert-Butyl-5-(5-ethoxypyridin-3-yl)benzoyl]piperazin-1-yl]-N-methylsulfonylpyridazine-3-carboxamide]: where the note is “AS-MS, mixture library, Bcl-2”, the “ASMS ratio (%) n = 1” value was 0.0% and the “ASMS ratio (%) n = 2” value is listed as 0.0%.
For `CCOc1cncc(-c2cc(CN3CCN(c4ccc(C(=O)NCC(F)(F)F)nn4)CC3)cc(OC(F)(F)F)c2)c1` [B1K090-01, 6-[4-[[3-(5-Ethoxypyridin-3-yl)-5-(trifluoromethoxy)phenyl]methyl]piperazin-1-yl]-N-(2,2,2-trifluoroethyl)pyridazine-3-carboxamide], under setting [1], the “ASMS ratio (%) n = 1” value is on record as −0.6% and the “ASMS ratio (%) n = 2” value is recorded as −1.9%.
Turning to `CCOc1cncc(-c2ccc(C(=O)N3CCN(c4ccc(C(=O)N(CC)CC)cc4)CC3)cc2C)c1` [B4J026-01, 4-[4-[4-(5-Ethoxypyridin-3-yl)-3-methylbenzoyl]piperazin-1-yl]-N,N-diethylbenzamide], under setting [2], the “ASMS ratio (%) n = 1” value is recorded as −3.6% and the “ASMS ratio (%) n = 2” value is recorded as −5.9%.
`CCOc1cccc(-c2ccc(CN3CCN(c4ccc(C(=O)NS(=O)(=O)CC56CC7CC(CC(C7)C5)C6)nn4)CC3)cc2C)c1` [B2A073-01, N-(1-Adamantylmethylsulfonyl)-6-[4-[[4-(3-ethoxyphenyl)-3-methylphenyl]methyl]piperazin-1-yl]pyridazine-3-carboxamide]: for the setting “AS-MS, mixture library, Bcl-2”, the “ASMS ratio (%) n = 1” value is 16.2% and the “ASMS ratio (%) n = 2” value was found to be 13.5%.
On to `CCOc1cccc(-c2ccc(CN3CCN(c4ccc(C(=O)NS(=O)(=O)c5ccc(NCCSc6ccccc6)c(C(F)(F)F)c5)cc4)CC3)cc2C)c1` [B2R047-01, 4-[4-[[4-(3-Ethoxyphenyl)-3-methylphenyl]methyl]piperazin-1-yl]-N-[4-(2-phenylsulfanylethylamino)-3-(trifluoromethyl)phenyl]sulfonylbenzamide], for which the “ASMS ratio (%)” value was 6.6% (n = 1) and −7.8% (n = 2).
As for `CCOc1cncc(-c2csc(CN3CCN(c4ccc(C(=O)NS(C)(=O)=O)nn4)CC3)c2)c1` [B2I094-01, 6-[4-[[4-(5-Ethoxypyridin-3-yl)thiophen-2-yl]methyl]piperazin-1-yl]-N-methylsulfonylpyridazine-3-carboxamide], the “ASMS ratio (%)” value (n = 1) worked out at 0.0% and the “ASMS ratio (%)” value (n = 2) is listed as 0.0%.
As for `CCOc1cncc(-c2ccc(CN3CCN(c4ccc(C(=O)NS(=O)(=O)CCC(F)(F)F)nn4)CC3)c3ccccc23)c1` [B2N092-01], the “ASMS ratio (%)” value is, setting by setting: (n = 1) 0.0%; (n = 2) 0.0%.
For `CCOc1cccc(C#Cc2cncc(C(=O)N3CCN(c4ccc(C(=O)NS(=O)(=O)c5ccc(NCCSc6ccccc6)c(C(F)(F)F)c5)nn4)CC3)c2)c1` [B2R009-01, 6-[4-[5-[2-(3-Ethoxyphenyl)ethynyl]pyridine-3-carbonyl]piperazin-1-yl]-N-[4-(2-phenylsulfanylethylamino)-3-(trifluoromethyl)phenyl]sulfonylpyridazine-3-carboxamide], the “ASMS ratio (%)” value is listed as 0.0% (n = 1) and 19.5% (n = 2).
For `CCOc1cncc(-c2cc(C(=O)N3CCN(c4ccc(C(=O)NS(=O)(=O)C(C)(C)C)cc4)CC3)cc(C(F)(F)F)c2)c1` [B2L040-01, N-tert-Butylsulfonyl-4-[4-[3-(5-ethoxypyridin-3-yl)-5-(trifluoromethyl)benzoyl]piperazin-1-yl]benzamide], in that order: −0.2% and 1.0%.
Regarding `CCOc1cncc(-c2cc(C(=O)N3CCN(c4ccc(C(=O)N(CC)CC)nn4)CC3)cc(C(F)(F)F)c2)c1` [B4J018-01, 6-[4-[3-(5-Ethoxypyridin-3-yl)-5-(trifluoromethyl)benzoyl]piperazin-1-yl]-N,N-diethylpyridazine-3-carboxamide], under setting [2], the “ASMS ratio (%) n = 1” value is recorded as −0.5% and the “ASMS ratio (%) n = 2” value is on record as −1.7%.
